Measurements reported in patent US8211633B2, “Viral variants with altered susceptibility to nucleoside analogs and uses thereof” (priority 2002, dated 2012).

Tests used:
HBV [1] = experiment: Serum HBV DNA level in treated patients (Digene Hybrid Capture II capture hybridization assay); format: in vivo, human; conditions: for HBV DNA: patient A, on LMV
Text: (§1) Patient A is a person with chronic hepatitis B presented on Day 0 (9 Jul. 1999) with raised serum HBV DNA levels (>2000 pg/ml) and was commenced on LMV treatment immediately (FIG. 2). The patient A was HBsAg positive and anti-HBe positive. Following the initiation of LMV treatment the HBV DNA levels fell to 8 pg/ml over 54 days of therapy. […] By Day 241 the serum ALT peaked at 741 IU/l. The HBV DNA was sequenced and LMV resistant virus was detected. […] The patient was started on open label ETV plus LMV.
Patient B is a liver transplant patient. […] The patient was treated with LMV prior to ETV. The patient is currently on ETV treatment. […] The HBV DNA from this sample was further characterized by sequencing.
Hepatitis B surface antigen (HBsAg), hepatitis B e antigen (HBeAg), anti-HBe and hepatitis B core antigen (HBcAg) specific IgG and IgM were measured using commercially available immunoassays (Abbott Laboratories, North Chicago, Ill., USA). Hepatitis B viral DNA levels were measured using a capture hybridization assay according to the manufacturer's directions (Digene Hybrid Capture II, Digene Diagnostics Inc., Beltsville, Md.). The manufacturers stated cut-off for detecting HBV viremia in clinical specimens was 0.7×10^6 copies/ml or 2.5 pg/ml, [Hendricks D A, et al., Am J Clin Pathol 104: 537-46, 1995].

[2] = Serum ALT level in treated patient A; format: in vivo, human; conditions: on LMV
Text: as §1

HBV [3] = conditions: four week dose-escalation trial; highest dose tested (1 mg/daily); cited from earlier work
[4] = test system: HBV encoding rtI169T+rtV173L+rtL180M+rtM204V; experiment: Antiviral testing with recombinant HBV/baculovirus in HepG2 cells, replicative intermediates by quantitative real-time PCR, quadruple mutant; format: cell-based, hepatitis B virus; conditions: quadruple mutant rtI169T+rtV173L+rtL180M+rtM204V vs wild type; especially at concentrations up to 0.5 μM ETV; FIG. 11
Procedure: The sensitivity/resistance profile of HBV mutants to entecavir was examined in vitro using recombinant HBV/baculovirus. The procedure for analysing the resistance profile is outlined in the following Examples 7-14.
Sf21 insect cells were maintained in supplemented Grace's insect medium further supplemented with 10% v/v heat-inactivated fetal bovine serum (Gibco BRL, Gaithersburg, Md.) in humidified incubator at 28 C with CO2. HepG2 cells were maintained in minimal essential medium supplemented with 10% v/v heat-inactivated fetal bovine serum (MEM-FBS). HepG2 cells were grown in humidified 37° C. incubators at 5% v/v CO2.
The recombinant HBV/baculovirus system used for antiviral testing has been previously described (Delaney et al., Antimicrob Agents Chemother 45(6): 1705-[…], 2001). […] The nucleotide sequence of the plasmid and the point mutations generated by site directed mutagenesis were confirmed by sequencing using the ABI Prism Big Dye Terminator Cycle Sequencing Ready Reaction Kit according to the manufacturer's specifications (Perkin Elmer, Cetus Norwalk, Conn.). […]
HepG2 cells were seeded at approximately 20-40% confluency and then were grown for 16-24 hours before infection. On the day of infection, triplicate plates of cells were trypsinized, and viable cell number was determined with a hemocytometer using Trypan blue exclusion. […]

WHV = conditions: chronically-infected woodchucks; cited from earlier work
[5] = day 382 post LMV treatment, day blinded ETV vs LMV phase started

With Nc1ccn([C@@H]2CS[C@H](CO)O2)c(=O)n1 [LMV, (−)-β-2′-deoxy-3′-thiacytidine] the “HBV DNA” value (HBV [1]; day 54 post LMV treatment) was 8 pg/mL, the “HBV DNA” value (HBV [1]; day 173 post LMV treatment) was 837 pg/mL and the “HBV DNA” value (HBV [1]; day 199 post LMV treatment) was 1826 pg/mL. The “HBV DNA” value (HBV [1]; day 241 post LMV treatment) was 930 pg/mL, the “HBV DNA” value (HBV [1]; day 283 post LMV treatment) was 1631 pg/mL and the “HBV DNA” value (HBV [1]; day 312 post LMV treatment) was 1539 pg/mL. The “HBV DNA” value (HBV [1]; day 348 post LMV treatment) was 1605 pg/mL, the “HBV DNA” value (HBV [1]; [5]) was 1303 pg/mL and the ALT ([2]; day 54 post LMV treatment) was 510 IU/L. For the same molecule, the ALT ([2]; day 87 post LMV treatment) was 211 IU/L, the ALT ([2]; day 115 post LMV treatment) was 106 IU/L and the ALT ([2]; day 173 post LMV treatment) was 186 IU/L. The ALT ([2]; day 199 post LMV treatment) was 233 IU/L, the ALT ([2]; day 241 post LMV treatment) was 741 IU/L and the ALT ([2]; day 283 post LMV treatment) was 334 IU/L. It also gave an ALT ([2]; day 312 post LMV treatment) of 238 IU/L, an ALT ([2]; day 348 post LMV treatment) of 349 IU/L and an ALT [2, 5] of 317 IU/L.

For C=C1[C@H](CO)[C@@H](O)C[C@@H]1n1cnc2c(=O)[nH]c(N)nc21 [ETV], the “HBV DNA levels” value (HBV [1]; patient B (liver transplant, LMV before ETV), during ETV treatment) is listed as “less than 5 pg/ml”, the “HBV DNA levels” value (HBV [1]; patient B, at 532 days ETV treatment (3857 days post transplant), rise) is listed as 993 pg/mL and the “mean reduction in viremia” value (HBV [3]) is listed as 2.5 log10. The “sensitivity to ETV (HBV DNA replicative intermediates by quantitative PCR)” value [4] was “reduced sensitivity to ETV” and the “efficacy against WHV” value (WHV) was “demonstrated efficacy”.
